# Test results taken from ChEMBL document CHEMBL1142733, “Binding thermodynamics as a tool to investigate the mechanisms of drug-receptor interactions: thermodynamics of cytoplasmic steroid/nuclear receptors in comparison with membrane receptors” (J Med Chem, 2005).
# Experiments:
# [1] = molecular target: T1, Adenosine receptor A1 (Homo sapiens) (UniProt P30542)
# T1 sequence (whole entry): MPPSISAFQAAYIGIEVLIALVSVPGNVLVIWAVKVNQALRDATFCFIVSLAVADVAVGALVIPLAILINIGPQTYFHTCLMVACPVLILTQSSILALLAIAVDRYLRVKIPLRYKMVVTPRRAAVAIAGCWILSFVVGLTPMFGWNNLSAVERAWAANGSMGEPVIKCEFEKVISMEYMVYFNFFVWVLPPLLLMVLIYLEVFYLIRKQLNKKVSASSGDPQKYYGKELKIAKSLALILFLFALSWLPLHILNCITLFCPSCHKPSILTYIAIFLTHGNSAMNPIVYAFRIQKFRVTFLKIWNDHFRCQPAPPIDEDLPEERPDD
# Description: (§1) Dissociation constant against Adenosine A1 receptor
# Adenosine receptor A1 = molecular target: T2, Adenosine receptor A1 (Homo sapiens, UniProt P30542)
# T2 sequence (P30542 whole entry): T1 sequence (whole entry)
# Description: as §1
# Progesterone receptor [2] = molecular target: T3, Progesterone receptor (Homo sapiens, UniProt P06401); assay: Dissociation constant for [3H]ORG2058 at human progesterone receptor at 273 K
# T3 sequence (P06401 whole entry): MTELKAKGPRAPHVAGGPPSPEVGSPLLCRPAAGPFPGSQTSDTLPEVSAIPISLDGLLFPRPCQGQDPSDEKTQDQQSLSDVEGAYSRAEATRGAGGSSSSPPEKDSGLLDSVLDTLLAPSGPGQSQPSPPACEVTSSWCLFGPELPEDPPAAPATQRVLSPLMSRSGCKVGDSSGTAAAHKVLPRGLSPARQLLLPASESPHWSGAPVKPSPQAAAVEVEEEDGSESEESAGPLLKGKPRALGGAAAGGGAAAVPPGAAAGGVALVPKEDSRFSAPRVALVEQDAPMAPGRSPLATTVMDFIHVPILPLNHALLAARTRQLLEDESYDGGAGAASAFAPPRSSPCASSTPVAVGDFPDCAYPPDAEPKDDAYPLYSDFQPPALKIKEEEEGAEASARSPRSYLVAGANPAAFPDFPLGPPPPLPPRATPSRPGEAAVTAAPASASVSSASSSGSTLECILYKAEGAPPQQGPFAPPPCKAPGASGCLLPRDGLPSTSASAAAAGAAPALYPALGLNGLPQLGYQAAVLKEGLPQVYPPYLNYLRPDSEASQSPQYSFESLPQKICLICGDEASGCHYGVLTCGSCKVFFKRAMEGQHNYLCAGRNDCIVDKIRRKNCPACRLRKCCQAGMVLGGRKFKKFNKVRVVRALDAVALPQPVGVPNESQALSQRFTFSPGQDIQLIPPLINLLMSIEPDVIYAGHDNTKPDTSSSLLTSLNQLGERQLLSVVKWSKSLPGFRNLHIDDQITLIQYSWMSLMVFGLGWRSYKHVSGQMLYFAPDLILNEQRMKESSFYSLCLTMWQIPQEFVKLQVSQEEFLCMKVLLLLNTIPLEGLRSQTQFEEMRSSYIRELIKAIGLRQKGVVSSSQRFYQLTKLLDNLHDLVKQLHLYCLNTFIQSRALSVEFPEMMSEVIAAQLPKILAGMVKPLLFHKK
# Progesterone receptor [3] = molecular target: T3, Progesterone receptor; assay: Dissociation constant for [3H]-ORG2058 at human progesterone receptor at 278 K
# Progesterone receptor [4] = molecular target: T3, Progesterone receptor; assay: Dissociation constant for [3H]-ORG2058 at human progesterone receptor at 283 K
# Progesterone receptor [5] = molecular target: T3, Progesterone receptor; assay: Dissociation constant for [3H]ORG2058 at human progesterone receptor at 288 K
# Progesterone receptor [6] = molecular target: T3, Progesterone receptor; assay: Dissociation constant for [3H]ORG2058 at human progesterone receptor at 293K
# Progesterone receptor [7] = molecular target: T3, Progesterone receptor; assay: Dissociation constant for [3H]ORG2058 at human progesterone receptor at 298 K
# Progesterone receptor [8] = molecular target: T3, Progesterone receptor; assay: Dissociation constant for [3H]ORG2058 at human progesterone receptor at 308 K
# Progesterone receptor [9] = molecular target: T3, Progesterone receptor; assay: Dissociation constant for [3H]ORG2058 at human progesterone receptor at 303 K
# Progesterone receptor [10] = molecular target: T3, Progesterone receptor; assay: Dissociation constant for [3H]-ORG2058 at human progesterone receptor at 310K
compound,measurement,setting,value
CC(C)Cn1c(=O)n(C)c(=O)c2nc[nH]c21,KD hydro,[1],19 mM
CC(C)Cn1c(=O)n(C)c(=O)c2[nH]cnc21 [ISOBUTYLMETHYLXANTHINE],Kd,Adenosine receptor A1,5.9 µM
CC[C@@H]1C[C@H]2[C@@H]3CCC4=CC(=O)CC[C@@H]4[C@H]3CC[C@]2(C)[C@H]1C(=O)CO,Kd,Progesterone receptor [2],3.28 nM
same,Kd,Progesterone receptor [3],2.7 nM
same,Kd,Progesterone receptor [4],2.49 nM
same,Kd,Progesterone receptor [5],2.32 nM
same,Kd,Progesterone receptor [6],2.64 nM
same,Kd,Progesterone receptor [7],3.16 nM
same,Kd,Progesterone receptor [8],4.56 nM
same,Kd,Progesterone receptor [9],4.13 nM
same,Kd,Progesterone receptor [10],5.42 nM
